Where two headings read alike, the source gives them in different places.

For series [1] the following is noted: 0.7 mg dose SAZ insert, beagles.
The conditions of series [2]: cyclosporine specification provided by the supplier; cited from earlier work.
The nature of series [3]: Example 3.2 proof-of-concept PK study: cyclosporine tear fluid concentration and drug released, beagles (Table 3.2). The class given is in vivo, beagle dogs. The settings on record: 0.44 mg dose SG insert, over 32 days, assuming consistent daily release. The source says: Inserts were removed at 32 days to determine the amount of remaining drug compared to the administered dose.

On to `CC=CCC(C)C(O)C1C(=O)NC(CC)C(=O)N(C)CC(=O)N(C)C(CC(C)C)C(=O)NC(C(C)C)C(=O)N(C)C(CC(C)C)C(=O)NC(C)C(=O)NC(C)C(=O)N(C)C(CC(C)C)C(=O)N(C)C(CC(C)C)C(=O)N(C)C(C(C)C)C(=O)N1C` (stereo not drawn) [Cyclosporine, 30-ethyl-33-(1-hydroxy-2-methylhex-4-enyl)-1,4,7,10,12,15,19,25,28-nonamethyl-6,9,18,24-tetrakis(2-methylpropyl)-3,21-di(propan-2-yl)-1,4,7,10,13,16,19,22,25,28,31-undecazacyclotritriacontane-2,5,8,11,14,17,20,23,26,29,32-undecone], for which the “average amount of cyclosporine released in 6 weeks” value in series [1] (inserts removed at 6 weeks) is on record as 0.37 mg. In addition, the “estimated daily delivered dose” value in series [1] (over 6 weeks, assuming consistent daily release) was 8.8 µg/day. Further, in series [2], the D10 was 0.5 μm, the D50 was 2.1 μm and the D90 is reported as 7.5 μm. Also, in series [3], the “estimated daily delivered dose” value is 6.3 µg/day.

The record behind these values is US11291627B1 (Ocular Therapeutix, Inc., priority 2020, dated 2022).
